Patent US11331369B2, “Endoparasitic depsipeptides” (Zoetis Services LLC, priority 2017, dated 2022)

System: microfilariae of Dirofilaria immitis
Assay: Dirofilaria immitis, Microfilaria (DiMF) In vitro Assay
Format: cell-based
Conditions: 72 h, read-out: DiMF Minimum Effective Dose (MED), approximately 72 hours incubation, microfilariae assessed for survival or paralysis

Row | Structure (SMILES) | minimal effective concentration [µM]
1 | CC(C)C[C@H]1C(=O)O[C@H](Cc2ccc(Cn3cc(Br)c(C#N)n3)cc2)C(=O)N(C)[C@@H](CC(C)C)C(=O)O[C@H](C)C(=O)N(C)[C@@H](CC(C)C)C(=O)O[C@H](Cc2ccc(Cn3cc(N)cn3)cc2)C(=O)N(C)[C@@H](CC(C)C)C(=O)O[C@H](C)C(=O)N1C [Example 1a-32, 1-(4-(((2R,5S,8R,11S,14R,17S,20R,23S)-14-(4-((4-amino-1H-pyrazol-1-yl)methyl)benzyl)-5,11,17,23-tetraisobutyl-4,8,10,16,20,22-hexamethyl-3,6,9,12,15,18,21,24-octaoxo-1,7,13,19-tetraoxa-4,10,16,22-tetraazacyclotetracosan-2-yl)methyl)benzyl)-4-bromo-1H-pyrazole-3-carbonitrile] | 0.01 to 0.1
2 | CC(C)C[C@H]1C(=O)O[C@H](Cc2ccc(Cn3ccc(-c4cnccn4)n3)cc2)C(=O)N(C)[C@@H](CC(C)C)C(=O)O[C@H](C)C(=O)N(C)[C@@H](CC(C)C)C(=O)O[C@H](Cc2ccc(Cn3ccc(-c4cnccn4)n3)cc2)C(=O)N(C)[C@@H](CC(C)C)C(=O)O[C@H](C)C(=O)N1C [Example 1b-195, (3S,6R,9S,12R,15S,18R,21S,24R)-3,9,15,21-tetraisobutyl-4,6,10,16,18,22-hexamethyl-12,24-bis[[4-[(3-pyrazin-2-ylpyrazol-1-yl)methyl]phenyl]methyl]-1,7,13,19-tetraoxa-4,10,16,22-tetrazacyclotetracosane-2,5,8,11,14,17,20,23-octaone] | 0.01 to 0.1
3 | CC(C)C[C@H]1C(=O)O[C@H](Cc2ccc(Cn3c(=O)ccc4ccccc43)cc2)C(=O)N(C)[C@@H](CC(C)C)C(=O)O[C@H](C)C(=O)N(C)[C@@H](CC(C)C)C(=O)O[C@H](Cc2ccccc2)C(=O)N(C)[C@@H](CC(C)C)C(=O)O[C@H](C)C(=O)N1C [Example 10-12, (3S,6R,9S,12R,15S,18R,21S,24R)-6-benzyl-3,9,15,21-tetraisobutyl-4,10,12,16,22,24-hexamethyl-18-(4-((2-oxoquinolin-1 (2H)-yl)methyl)benzyl)-1,7,13,19-tetraoxa-4,10,16,22-tetraazacyclotetracosan-2,5,8,11,14,17,20,23-octaone] | 0.01 to 0.1
4 | CC(C)C[C@H]1C(=O)O[C@H](Cc2ccc(CN3CCOc4ccccc43)cc2)C(=O)N(C)[C@@H](CC(C)C)C(=O)O[C@H](C)C(=O)N(C)[C@@H](CC(C)C)C(=O)O[C@H](Cc2ccccc2)C(=O)N(C)[C@@H](CC(C)C)C(=O)O[C@H](C)C(=O)N1C [Example 10-16, (3S,6R,9S,12R,15S,18R,21S,24R)-6-benzyl-18-(4-((2,3-dihydro-4H-benzo[b][1,4]oxazin-4-yl)methyl)benzyl)-3,9,15,21-tetraisobutyl-4,10,12,16,22,24-hexamethyl-1,7,13,19-tetraoxa-4,10,16,22-tetraazacyclotetracosan-2,5,8,11,14,17,20,23-octaone] | 0.01 to 0.1
5 | CC(C)C[C@H]1C(=O)O[C@H](Cc2ccc(Cn3ccc(C4CCCC4)n3)cc2)C(=O)N(C)[C@@H](CC(C)C)C(=O)O[C@H](C)C(=O)N(C)[C@@H](CC(C)C)C(=O)O[C@H](Cc2ccccc2)C(=O)N(C)[C@@H](CC(C)C)C(=O)O[C@H](C)C(=O)N1C [Example 2-88, (3S,6R,9S,12R,15S,18R,21S,24R)-6-benzyl-18-(4-((3-cyclopentyl-1H-pyrazol-1-yl)methyl)benzyl)-3,9,15,21-tetraisobutyl-4,10,12,16,22,24-hexamethyl-1,7,13,19-tetraoxa-4,10,16,22-tetraazacyclotetracosan-2,5,8,11,14,17,20,23-octaone] | 0.01 to 0.1
6 | CC(C)C[C@H]1C(=O)O[C@H](Cc2ccc(Cn3cc([N+](=O)[O-])cn3)cc2)C(=O)N(C)[C@@H](CC(C)C)C(=O)O[C@H](C)C(=O)N(C)[C@@H](CC(C)C)C(=O)O[C@H](Cc2ccccc2)C(=O)N(C)[C@@H](CC(C)C)C(=O)O[C@H](C)C(=O)N1C [Example 2-29, (3S,6R,9S,12R,15S,18R,21S,24R)-6-benzyl-3,9,15,21-tetraisobutyl-4,10,12,16,22,24-hexamethyl-18-(4-((4-nitro-1H-pyrazol-1-yl)methyl)benzyl)-1,7,13,19-tetraoxa-4,10,16,22-tetraazacyclotetracosan-2,5,8,11,14,17,20,23-octaone] | 0.001 to 0.01
7 | CC(C)C[C@H]1C(=O)O[C@H](Cc2cccc(Cn3nc(CO)cc3CO)c2)C(=O)N(C)[C@@H](CC(C)C)C(=O)O[C@H](C)C(=O)N(C)[C@@H](CC(C)C)C(=O)O[C@H](Cc2ccccc2)C(=O)N(C)[C@@H](CC(C)C)C(=O)O[C@H](C)C(=O)N1C [Example 5-4, (3S,6R,9S,12R,15S,18R,21S,24R)-6-benzyl-18-(3-((3,5-bis(hydroxymethyl)-1H-pyrazol-1-yl)methyl)benzyl)-3,9,15,21-tetraisobutyl-4,10,12,16,22,24-hexamethyl-1,7,13,19-tetraoxa-4,10,16,22-tetraazacyclotetracosan-2,5,8,11,14,17,20,23-octaone] | 0.01 to 0.1
8 | CC(C)C[C@H]1C(=O)O[C@H](Cc2ccc(Cn3nnc4ccccc43)cc2)C(=O)N(C)[C@@H](CC(C)C)C(=O)O[C@H](C)C(=O)N(C)[C@@H](CC(C)C)C(=O)O[C@H](Cc2ccc(Cn3nnc4ccccc43)cc2)C(=O)N(C)[C@@H](CC(C)C)C(=O)O[C@H](C)C(=O)N1C [Example 9-29, (3S,6R,9S,12R,15S,18R,21S,24R)-6,18-bis(4-((1H-benzo[d][1,2,3]triazol-1-yl)methyl)benzyl)-3,9,15,21-tetraisobutyl-4,10,12,16,22,24-hexamethyl-1,7,13,19-tetraoxa-4,10,16,22-tetraazacyclotetracosan-2,5,8,11,14,17,20,23-octaone] | 0.01 to 0.1
9 | CC(=O)c1cnn(Cc2ccc(C[C@H]3OC(=O)[C@H](CC(C)C)N(C)C(=O)[C@@H](C)OC(=O)[C@H](CC(C)C)N(C)C(=O)[C@@H](Cc4ccc(Cn5cc(C(C)=O)cn5)cc4)OC(=O)[C@H](CC(C)C)N(C)C(=O)[C@@H](C)OC(=O)[C@H](CC(C)C)N(C)C3=O)cc2)c1 [Example 1b-38, (3S,6R,9S,12R,15S,18R,21S,24R)-6,18-bis(4-((4-acetyl-1H-pyrazol-1-yl)methyl)benzyl)-3,9,15,21-tetraisobutyl-4,10,12,16,22,24-hexamethyl-1,7,13,19-tetraoxa-4,10,16,22-tetraazacyclotetracosan-2,5,8,11,14,17,20,23-octaone] | 0.01 to 0.1
10 | CC(C)C[C@H]1C(=O)O[C@H](Cc2ccc(Cn3cc(-c4ccccc4)cn3)cc2)C(=O)N(C)[C@@H](CC(C)C)C(=O)O[C@H](C)C(=O)N(C)[C@@H](CC(C)C)C(=O)O[C@H](Cc2ccc(Cn3cccn3)cc2)C(=O)N(C)[C@@H](CC(C)C)C(=O)O[C@H](C)C(=O)N1C [Example 1a-15, (3S,6R,9S,12R,15S,18R,21S,24R)-6-(4-((1H-pyrazol-1-yl)methyl)benzyl)-3,9,15,21-tetraisobutyl-4,10,12,16,22,24-hexamethyl-18-(4-((4-phenyl-1H-pyrazol-1-yl)methyl)benzyl)-1,7,13,19-tetraoxa-4,10,16,22-tetraazacyclotetracosan-2,5,8,11,14,17,20,23-octaone] | 0.01 to 0.1
11 | CC(C)C[C@H]1C(=O)O[C@H](Cc2ccc(Cn3ccc(-c4cccnc4)n3)cc2)C(=O)N(C)[C@@H](CC(C)C)C(=O)O[C@H](C)C(=O)N(C)[C@@H](CC(C)C)C(=O)O[C@H](Cc2ccc(Cn3ccc(-c4cccnc4)n3)cc2)C(=O)N(C)[C@@H](CC(C)C)C(=O)O[C@H](C)C(=O)N1C [Example 1b-139, (3S,6R,9S,12R,15S,18R,21S,24R)-3,9,15,21-tetraisobutyl-4,6,10,16,18,22-hexamethyl-12,24-bis(4-((3-(pyridin-3-yl)-1H-pyrazol-1-yl)methyl)benzyl)-1,7,13,19-tetraoxa-4,10,16,22-tetraazacyclotetracosan-2,5,8,11,14,17,20,23-octaone] | 0.01 to 0.1
12 | Cc1nn(Cc2ccc(C[C@H]3OC(=O)[C@H](CC(C)C)N(C)C(=O)[C@@H](C)OC(=O)[C@H](CC(C)C)N(C)C(=O)[C@@H](Cc4ccc(Cn5nc(C)c(C#N)c5C)cc4)OC(=O)[C@H](CC(C)C)N(C)C(=O)[C@@H](C)OC(=O)[C@H](CC(C)C)N(C)C3=O)cc2)c(C)c1C#N [Example 1b-117, 1,1′-(((((2R,5S,8R,11S,14R,17S,20R,23S)-5,11,17,23-tetraisobutyl-4,8,10,16,20,22-hexamethyl-3,6,9,12,15,18,21,24-octaoxo-1,7,13,19-tetraoxa-4,10,16,22-tetraazacyclotetracosane-2,14-diyl)bis(methylene))bis(4,1-phenylene))bis(methylene))bis(3,5-dimethyl-1H-pyrazole-4-carbonitrile)] | 0.01 to 0.1
13 | Cc1cnn(Cc2ccc(C[C@H]3OC(=O)[C@H](CC(C)C)N(C)C(=O)[C@@H](C)OC(=O)[C@H](CC(C)C)N(C)C(=O)[C@@H](Cc4ccc(Cn5ccc(-c6ccccc6)n5)cc4)OC(=O)[C@H](CC(C)C)N(C)C(=O)[C@@H](C)OC(=O)[C@H](CC(C)C)N(C)C3=O)cc2)c1 [Example 1a-28, (3S,6R,9S,12R,15S,18R,21S,24R)-3,9,15,21-tetraisobutyl-4,6,10,16,18,22-hexamethyl-12-(4-((4-methyl-1H-pyrazol-1-yl)methyl)benzyl)-24-(4-((3-phenyl-1H-pyrazol-1-yl)methyl)benzyl)-1,7,13,19-tetraoxa-4,10,16,22-tetraazacyclotetracosan-2,5,8,11,14,17,20,23-octaone] | 0.01 to 0.1
14 | CC(C)C[C@H]1C(=O)O[C@H](Cc2ccc(Cn3cc(-c4ccc(Cl)cc4)cn3)cc2)C(=O)N(C)[C@@H](CC(C)C)C(=O)O[C@H](C)C(=O)N(C)[C@@H](CC(C)C)C(=O)O[C@H](Cc2ccc(Cn3cccn3)cc2)C(=O)N(C)[C@@H](CC(C)C)C(=O)O[C@H](C)C(=O)N1C [Example 1a-18, (3S,6R,9S,12R,15S,18R,21S,24R)-6-(4-((1H-pyrazol-1-yl)methyl)benzyl)-18-(4-((4-(4-chlorophenyl)-1H-pyrazol-1-yl)methyl)benzyl)-3,9,15,21-tetraisobutyl-4,10,12,16,22,24-hexamethyl-1,7,13,19-tetraoxa-4,10,16,22-tetraazacyclotetracosan-2,5,8,11,14,17,20,23-octaone] | 0.01 to 0.1
